Measured values taken from patent publication US7326732B2, “EP2 receptor agonists” (Pharmagene Laboratories Limited, priority 2004, dated 2008).

Experiments:
[1] = target: T1, human EP2 prostanoid receptors (Homo sapiens, UniProt P43116); experiment: Agonist activity at recombinant human EP2 prostanoid receptors (cAMP in HEK-293 clones); assay type: cell-based; details: for EC50: HEK-293 stably transfected with human EP2, cAMP accumulation, read-out: pEC50 EP2 (converted); for activity (EP2 part): functional classification at EP2
T1 construct: expressed in transfected cells; host or cells: HEK-293

human EP2 receptor = target: T2, human EP2 receptor (Homo sapiens, UniProt P43116); experiment: Binding ability to human EP receptors ([3H]PGE2 displacement), EP2; details: membranes expressing human EP2; [3H]PGE2 3 nM; Cheng-Prusoff; read-out: pKi (M) EP2 (converted)
T2 construct: expressed in transfected cells
How it was run: (§1)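 Membranes from cells stably expressing human EP2, EP3 or EP4 incubated to equilibrium with [3H]PGE2 and compound at 0.1 to 10 000 nM. Non-specific binding defined with 10 uM PGE2; bound label separated by vacuum filtration and quantified by scintillation counting.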

human EP4 receptor = target: T3, human EP4 receptor (Homo sapiens, UniProt P35408); experiment: Binding ability to human EP receptors ([3H]PGE2 displacement), EP4; details: membranes expressing human EP4; [3H]PGE2 1 nM; Cheng-Prusoff; read-out: pKi (M) EP4 (converted)
T3 construct: expressed in transfected cells
How it was run: as §1

human EP3 receptor = target: T4, human EP3 receptor (Homo sapiens, UniProt P43115); experiment: Binding ability to human EP receptors ([3H]PGE2 displacement), EP3; details: membranes expressing human EP3; [3H]PGE2 2.5 nM; Cheng-Prusoff; read-out: pKi (M) EP3 (converted)
T4 construct: expressed in transfected cells
T4 sequence (P43115 1-390): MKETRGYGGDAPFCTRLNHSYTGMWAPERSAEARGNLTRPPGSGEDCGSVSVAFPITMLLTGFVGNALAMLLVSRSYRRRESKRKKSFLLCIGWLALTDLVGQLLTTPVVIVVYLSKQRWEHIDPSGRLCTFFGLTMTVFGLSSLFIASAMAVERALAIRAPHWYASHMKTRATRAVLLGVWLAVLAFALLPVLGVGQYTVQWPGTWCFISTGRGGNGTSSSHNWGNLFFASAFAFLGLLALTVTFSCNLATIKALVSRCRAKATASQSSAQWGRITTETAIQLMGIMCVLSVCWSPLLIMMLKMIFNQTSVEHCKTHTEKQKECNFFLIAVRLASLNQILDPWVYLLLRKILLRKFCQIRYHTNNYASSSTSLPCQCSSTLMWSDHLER
How it was run: as §1

T2 sequence (P43116 whole entry): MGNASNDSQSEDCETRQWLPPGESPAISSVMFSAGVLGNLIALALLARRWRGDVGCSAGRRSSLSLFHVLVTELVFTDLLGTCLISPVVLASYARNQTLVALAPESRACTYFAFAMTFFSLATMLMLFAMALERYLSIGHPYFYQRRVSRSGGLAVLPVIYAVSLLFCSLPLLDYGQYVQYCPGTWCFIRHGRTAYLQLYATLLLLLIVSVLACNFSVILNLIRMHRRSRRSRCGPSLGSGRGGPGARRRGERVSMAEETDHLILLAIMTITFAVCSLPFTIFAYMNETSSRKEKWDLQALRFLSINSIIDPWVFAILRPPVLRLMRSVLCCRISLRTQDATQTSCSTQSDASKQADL
T1 sequence (P43116 whole entry): as above
T3 sequence (P35408 whole entry): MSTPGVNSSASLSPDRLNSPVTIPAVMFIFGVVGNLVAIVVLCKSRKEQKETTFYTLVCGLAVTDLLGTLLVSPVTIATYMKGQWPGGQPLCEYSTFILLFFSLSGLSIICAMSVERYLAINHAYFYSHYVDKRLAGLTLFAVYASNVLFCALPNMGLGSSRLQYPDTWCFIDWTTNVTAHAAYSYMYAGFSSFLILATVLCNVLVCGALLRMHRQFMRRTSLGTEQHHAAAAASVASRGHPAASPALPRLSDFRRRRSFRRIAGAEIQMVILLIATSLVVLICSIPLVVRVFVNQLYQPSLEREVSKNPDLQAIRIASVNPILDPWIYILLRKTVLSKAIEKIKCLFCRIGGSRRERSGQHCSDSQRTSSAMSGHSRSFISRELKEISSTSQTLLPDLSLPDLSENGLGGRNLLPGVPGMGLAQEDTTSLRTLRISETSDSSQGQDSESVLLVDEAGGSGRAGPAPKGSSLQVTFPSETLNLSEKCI

SMILES | EC50 [1] | activity (EP2 part) [1] | Ki (human EP2 receptor) | Ki (human EP4 receptor) | Ki (human EP3 receptor)
O=C(Nc1cccc(Cc2nnn[nH]2)c1)c1cccc(-c2ccc(Cl)cc2)n1 [Compound 95, 6-(4-Chloro-phenyl)-pyridine-2-carboxylic acid [3-(1H-tetrazol-5ylmethyl)-phenyl]-amide] | < 0.1 µM | EP2 Agonist | < 1e-07 M | > 1e-05 M | > 1e-05 M
O=C(Nc1ccc2sc(C(=O)O)cc2c1)c1ccc(-c2ccccc2)o1 [Compound 97, 5-[(5-Phenyl-furan-2-carbonyl)-amino]-benzo[b]thiophene-2-carboxylic acid] | < 1 µM | EP2 Agonist | < 1e-06 M | > 1e-05 M | > 1e-05 M
CC/C(=C\c1cccc(NC(=O)c2ccc(-c3ccccc3)o2)c1)C(=O)O [Compound 98, 2-{3-[(5-Phenyl-furan-2-carbonyl)-amino]-benzylidene}-butyric acid] | < 1 µM | EP2 Agonist | < 1e-06 M | > 1e-05 M | > 1e-05 M
O=C(O)/C=C/c1cccc(NC(=O)c2ccc(-c3cccc(F)c3)o2)c1 [Compound 100, 3-(3-{[5-(3-Fluoro-phenyl)-furan-2-carbonyl]-amino}-phenyl)-acrylic acid] | < 0.1 µM | EP2 Agonist | < 1e-07 M | < 1e-05 M | > 1e-05 M
O=C(O)/C=C/c1cccc(NC(=O)c2ccc(-c3ccc4c(c3)OCO4)o2)c1 [Compound 101, 3-{3-[(5-Benzo[1,3]dioxol-5-yl-furan-2-carbonyl)-amino]-phenyl}-acrylic acid] | < 0.1 µM | EP2 Agonist | < 1e-07 M | > 1e-05 M | > 1e-05 M
O=C(O)/C=C/c1cccc(NC(=O)c2cc(-c3ccccc3)ccc2F)c1 [Compound 107, 3-{3-[(4-Fluoro-biphenyl-3-carbonyl)-amino]-phenyl}-acrylic acid] | < 0.1 µM | EP2 Agonist | < 1e-07 M | > 1e-05 M | > 1e-05 M
O=C(O)/C=C/c1cccc(NC(=O)c2cc(-c3cccc(F)c3)ccc2F)c1 [Compound 108, 3-{3-[(4,3′-Difluoro-biphenyl-3-carbonyl)-amino]-phenyl}-acrylic acid] | < 0.1 µM | EP2 Agonist | < 1e-07 M | > 1e-05 M | > 1e-05 M
O=C(O)/C=C/c1cccc(NC(=O)c2cccc(-c3cccc(F)c3)n2)c1 [Compound 110, 3-(3-{[6-(3-Fluoro-phenyl)-pyridine-2-carbonyl]-amino}-phenyl)-acrylic acid] | < 0.1 µM | EP2 Agonist | < 1e-07 M | > 1e-05 M | > 1e-05 M
O=C(O)Cc1cccc(NC(=O)c2cc(-c3cccc(F)c3)ccc2F)c1 [Compound 111] | < 0.1 µM | EP2 Agonist | < 1e-07 M | > 1e-05 M | > 1e-05 M
O=C(O)/C=C/c1cccc(NC(=O)c2cc(-c3ccc(F)cc3)ccc2F)c1 [Compound 112, 3-{3-[(4,4′-Difluoro-biphenyl-3-carbonyl)-amino]-phenyl}-acrylic acid] | < 0.1 µM | EP2 Agonist | < 1e-07 M | > 1e-05 M | > 1e-05 M
O=C(O)Cc1cccc(NC(=O)c2cccc(-c3cccc(F)c3)n2)c1 [Compound 113, (3-{[6-(3-Fluoro-phenyl)-pyridine-2-carbonyl]-amino}-phenyl)-acetic acid] | < 0.1 µM | EP2 Agonist | < 1e-07 M | > 1e-05 M | > 1e-05 M
O=C(O)/C=C/c1cccc(NC(=O)c2csc(-c3ccccc3)n2)c1 [Compound 115, 3-{3-[(2-Phenyl-thiazole-4-carbonyl)-amino]-phenyl}-acrylic acid] | < 0.1 µM | EP2 Agonist | < 1e-07 M | > 1e-05 M | > 1e-05 M
